Results published in EP2377876A1, “Use of proteins and peptides of the TGF-BETA superfamily for purification and therapeutic methods” (Wyeth LLC, priority 2006, dated 2011).
No end group written: not given here.

How the values were obtained:
[1] = system: BMP-12; assay: Binding of BMP-12 to peptide-coupled affinity resins in 96 well filter plate
Procedure: The coupled resins, plus an unconjugated resin for use as a control, were suspended in 16% ethanol, 150 mM NaCl, and 20 mM Tris buffer at pH 7.5 at a 25% v/v ratio (e.g., 25% ethanol, 75% Tris buffer). A Tecan liquid-handling robot was employed to aliquot 200 µL of each slurry into one of eight rows of a 96 well polystyrene filter plate (0.45 µm hydrophilic filters, Whatman catalog number 770-1806). Spinning at 1200 g for 3 min removed the liquid phase, leaving 50 µL of wet resin on the filters. The resins were then equilibrated with the loading buffers listed in Table 6 (K is a coefficient characterizing the strength of protein binding to a particular resin in a particular buffer). […] The resins were loaded by transferring 150 µL from the load plate to the filter plate and then incubating 20 min on a shaking platform to facilitate binding. The filter plate was spun down and the filtrate collected in a 96 well UV plate. The protein concentration in the filtrate, or flow-through, was calculated as (A280-A320)/1.3. The filter plate was then washed with 150 µL of 100 mM acetic acid, followed by 150 µL of 4M guanidine-HCl and 50 mM sodium acetate at pH 4.0. The protein concentration was measured in the new filtrate as described above. […] However, for peptides 750 and 751, the binding was strong in 25 mM MES at pH 6 but weak in 50 mM acetic acid with 0.1 M NaCl at pH 3.0, which can allow an efficient binding-elution process without the need for chaotrops or organic reagents. Flow-through and acetic acid elution samples from column 4 of the plate (loaded with MES pH 6) were analyzed on a gel (Figure 14).

[2] = system: BMP-3; assay: Purification of BMP-3 on immobilized finger 1 peptide column, comparison of ligands; assay type: binding; settings: compared with the BMP-2 mutant peptide
Description: ([…] […]) was used to purify BMP-3 as in Example 1. […] Less of the propeptide fragment eluted than in Example 6.

[3] = 50 mM acetic acid with 0.1 M NaCl at pH 3.0

Row | binding of BMP 12 by coupled resin ([1]; loading buffers 1-5) | binding of BMP 12 by coupled resin ([1]; 25 mM MES at pH 6) | binding of BMP 12 by coupled resin [1, 3] | Substance | other results
1 | high affinity |  |  | Ac-ELGWDDWIIAPLDYEAYHSEGLK [Peptide 749] | 
2 |  | strong | weak | Ac-SDVGWNDWIVAPPGYHAFYCHGEK [Peptide 750] | 
3 |  | strong | weak | Ac-SDVGWNDWIVAPPGYHAFYSHGEK [Peptide 751] | 

The remaining lines, values behind:

Row | Substance | binding of BMP 12 by coupled resin ([1]; loading buffers 1-5) | binding of BMP 12 by coupled resin ([1]; 25 mM MES at pH 6) | binding of BMP 12 by coupled resin [1, 3] | other results
4 | Ac-LYVDFSDVGWNDWIVAPPGYHAFYSHGEK [Peptide 747] | high affinity |  |  | 
5 | Ac-RDLGWQDWIIAPEGYAAFYSDGEK [Peptide 748] | high affinity |  |  | 
6 | KELGWDDWIIAPLDYEAYHCEGLC [BMP12 Fing1 WT] |  |  |  | effectiveness of immobilized ligand [2]: less effective than the BMP-2 mutant
